Patent US9890175B2, “Taxane compound, and preparation method and use thereof” (JIANGSU TASLY DIYI PHARMACEUTICAL CO., LTD., priority 2013, dated 2018)
Read-outs that look alike come from different tables or passages of the source.

Tests used:
A2780 ovarian cancer = assay: MTT proliferation inhibition, A2780; type: cell-based; conditions: Homo sapiens, A2780, read-out: Proliferation inhibition rate, A2780 Ovarian cancer
Source text: (§1) 1. Cytotoxicity Assay Using Human Tumor Cell Lines
(§2) Paclitaxel was used as the positive drug.

Hela cervical cancer = assay: MTT proliferation inhibition, HeLa; type: cell-based; conditions: Homo sapiens, read-out: Proliferation inhibition rate, HeLa Uterin cancer
Source text: as §1, §2

[1] = system: MCF-7 breast cancer cells; assay: MTT proliferation inhibition, MCF-7; type: cell-based; conditions: Homo sapiens, MCF7, read-out: Proliferation inhibition rate, MCF-7 Breast cancer
Source text: as §1, §2

[2] = system: NCI-H460 non-small cell lung cancer; assay: MTT proliferation inhibition, NCI-H460; type: cell-based; conditions: Homo sapiens, NCI-H460, read-out: Proliferation inhibition rate, NCI-H460 Non-small cell lung cancer
Source text: as §1, §2

A375 melanoma = assay: MTT proliferation inhibition, A375; type: cell-based; conditions: Homo sapiens, A-375, read-out: Proliferation inhibition rate, A375 Melanoma
Source text: as §1, §2

HT-29 colon cancer = assay: MTT proliferation inhibition, HT-29; type: cell-based; conditions: Homo sapiens, HT-29, read-out: Proliferation inhibition rate, HT29 Colon cancer
Source text: as §1, §2

HL-60 leukemia = assay: MTT proliferation inhibition, HL-60; type: cell-based; conditions: Homo sapiens, HL-60, read-out: Proliferation inhibition rate, HL60 Leukemia
Source text: as §1, §2

Du145 prostate cancer = assay: MTT proliferation inhibition, Du145; type: cell-based; conditions: Homo sapiens, DU-145, read-out: Proliferation inhibition rate, DU145 Prostate cancer
Source text: as §1, §2

[3] = system: MDA-MB-436 breast cancer cells; assay: MTT proliferation inhibition, MDA-MB-436; type: cell-based; conditions: Homo sapiens, MDA-MB-436, read-out: Proliferation inhibition rate, MDA-MB-436 Breast cancer
Source text: as §1, §2

LN-18 = assay: MTT proliferation inhibition, LN-18; type: cell-based; conditions: Homo sapiens, LN-18, read-out: Proliferation inhibition rate, LN-18 Gastric canser
Source text: as §1, §2

BGC-823 gastric cancer = assay: MTT proliferation inhibition, BGC-823; type: cell-based; conditions: Homo sapiens, BGC-823, read-out: Proliferation inhibition rate, BGC-823 Gastric cancer
Source text: as §1, §2

[4] = system: A549 non-small cell lung cancer; assay: MTT proliferation inhibition, A549; type: cell-based; conditions: Homo sapiens, A549, read-out: Proliferation inhibition rate, A549 Non-small cell lung cancer
Source text: as §1, §2

B16 melanoma = assay: MTT proliferation inhibition, B16; type: cell-based; conditions: B16, read-out: Proliferation inhibition rate, B16 Melanoma
Source text: as §1, §2

HCT 116 colon cancer = assay: MTT proliferation inhibition, HCT 116; type: cell-based; conditions: Homo sapiens, HCT-116, read-out: Proliferation inhibition rate, HCT 116 Colon cancer
Source text: as §1, §2

K562 leukemia = assay: MTT proliferation inhibition, K562; type: cell-based; conditions: Homo sapiens, K562, read-out: Proliferation inhibition rate, K562 Leukemia
Source text: as §1, §2

LNCaP prostate cancer = assay: MTT proliferation inhibition, LNCaP; type: cell-based; conditions: Homo sapiens, read-out: Proliferation inhibition rate, LNCaP Prostate cancer
Source text: as §1, §2

[5] = system: breast cancer cell line MCF-7; assay: IC50 on breast cancer cell line MCF-7; type: cell-based; conditions: Homo sapiens, MCF7, 72 h, read-out: MCF-7 (IC50, nM)
Method: From the activity evaluation data of the above-mentioned preliminary screen, it can be seen that the series of taxanes derivatives synthesized in the present invention have activity. Afterward, the compounds are investigated to examine their IC50 values on breast cancer cell line MCF-7. […] Experiments for each compound were independently repeated for three times and multiple holes were used in each experiment. The exposure time of drugs was 72 hours.

[6] = Caco-2 cell monolayer membrane transport assay (Papp and recovery); type: in vitro ADME; conditions: human, Caco-2, Caco-2, A-B
Source text: Caco-2 Cell Monolayer Membrane Transport Assay
(§3) Human-derived colorectal adenocarcinoma cell line Caco-2 cell monolayer model was used to study the bidirectional transport of the target compounds from the apical (AP) side to the basolateral (BL) side and from BL side to AP side. HPLC was used for quantitative analysis to calculate transport parameters, apparent permeability coefficient (Papp) and the efflux ratio.

Caco-2 cell monolayer = assay: Caco-2 bidirectional transport, efflux ratio; conditions: Caco-2 cell line (21 days); for efflux ratio: Papp B-A/Papp A-B
Source text: as §3

[7] = Caco-2 bidirectional transport, efflux ratio; conditions: human, Caco-2
Source text: as §3

[8] = Mean, read-out: Recovery rate in mass, Mean
[9] = Sample-01, read-out: Papp A-B, Sample-01
[10] = Sample-01, read-out: Recovery rate in mass, Sample-01
[11] = Sample-02, read-out: Papp A-B, Sample-02
[12] = Sample-02, read-out: Recovery rate in mass, Sample-02

Row | Structure (SMILES) | inhibition at 1 µM (A2780 ovarian cancer) | inhibition at 1 µM (Hela cervical cancer) | inhibition at 1 µM [1] | inhibition at 1 µM [2] | inhibition at 1 µM (A375 melanoma) | inhibition at 1 µM (HT-29 colon cancer) | inhibition at 1 µM (HL-60 leukemia) | inhibition at 1 µM (Du145 prostate cancer) | inhibition at 1 µM [3] | inhibition at 1 µM (LN-18) | inhibition at 1 µM (BGC-823 gastric cancer) | inhibition at 1 µM [4] | inhibition at 1 µM (B16 melanoma) | inhibition at 1 µM (HCT 116 colon cancer) | inhibition at 1 µM (K562 leukemia) | inhibition at 1 µM (LNCaP prostate cancer) | IC50 [5] | Papp A→B ([6]; Mean, read-out: Papp A-B, Mean) | recovery [6, 8] | Papp A→B [6, 9] | other results
1 | CO[C@H]1C(=O)[C@]2(C)[C@@H](OC)C[C@H]3OC[C@@]3(OC(C)=O)[C@H]2[C@H](OC(=O)c2ccccc2)[C@]23OC(=O)O[C@H]2[C@H](OC(=O)[C@H](O)[C@@H](NC(=O)OC(C)(C)C)c2ccccc2)C(C)=C1C3(C)C [PCMI-01] | 96.7% | 101% | 96% | 87.9% | 90.8% | 89.4% | 96.6% | 87.8% | 81.5% | 92.8% | 93.1% | 66.9% | 78.1% | 59.7% | 92.8% | 80.7% | 2.1 ± 0.08 nM | 4.17 ×10⁻⁶ cm/s | 54.7% | 4.47 ×10⁻⁶ cm/s | recovery [6, 10]: 48.2%; Papp A→B [6, 11]: 3.87 ×10⁻⁶ cm/s; recovery [6, 12]: 61.2%; Papp A-B (Caco-2 cell monolayer): 2.83 10^−6 cm/s; Papp B-A (Caco-2 cell monolayer): 18.20 10^−6 cm/s; efflux ratio (Caco-2 cell monolayer): 6.42
2 | CO[C@H]1C(=O)[C@]2(C)CC[C@H]3OC[C@@]3(OC(C)=O)[C@H]2[C@H](OC(=O)c2ccccc2)[C@]23OC(=O)O[C@H]2[C@H](OC(=O)[C@H](O)[C@@H](NC(=O)OC(C)(C)C)c2ccccc2)C(C)=C1C3(C)C [PCMI-07] | 95% | 100% | 87.1% | 82.7% | 92.5% | 86.6% | 97.5% | 86.8% | 80.5% | 96.1% | 94.1% | 74.9% | 78.6% | 68.8% | 94% | 84.9% | 4.49 ± 0.02 nM | 2.64 ×10⁻⁶ cm/s | 50.3% | 3.24 ×10⁻⁶ cm/s | recovery [6, 10]: 54.2%; Papp A→B [6, 11]: 2.05 ×10⁻⁶ cm/s; recovery [6, 12]: 46.3%; Papp A-B (Caco-2 cell monolayer): 2.64 10^−6 cm/s; Papp B-A (Caco-2 cell monolayer): 25.26 10^−6 cm/s; efflux ratio (Caco-2 cell monolayer): 9.56
3 | CO[C@H]1C(=O)[C@]2(C)[C@@H](OC(=O)N(C)C)C[C@H]3OC[C@@]3(OC(C)=O)[C@H]2[C@H](OC(=O)c2ccccc2)[C@]23OC(=O)O[C@H]2[C@H](OC(=O)[C@H](O)[C@@H](NC(=O)OC(C)(C)C)c2ccccc2)C(C)=C1C3(C)C [PCMI-14] | 94.2% | 99.9% | 88.5% | 86.9% | 95.3% | 87.3% | 97.5% | 89.8% | 80.2% | 93.5% | 95.8% | 76.2% | 80.3% | 65.5% | 92.7% | 85.3% | 15.4 ± 0.16 nM | 3.04 ×10⁻⁶ cm/s | 91.3% | 3.21 ×10⁻⁶ cm/s | recovery [6, 10]: 95%; Papp A→B [6, 11]: 2.87 ×10⁻⁶ cm/s; recovery [6, 12]: 87.6%; Papp A→B [7]: 1.98 ×10⁻⁶ cm/s; Papp B→A [7]: 19 ×10⁻⁶ cm/s; efflux ratio [7]: 9.58
